Results reported in patent publication US20160340732A1, “COMPOSITIONS AND METHODS FOR DIAGNOSING AND TREATING NUCLEOTIDE REPEAT DISORDERS” (University of Virginia Patent Foundation, priority 2015, published 2016).

Legend:
miR-762 = miR-762 levels in cells exposed to HDAC inhibitors; type: cell-based; settings: mouse C2C12 cells, TSA 50 nM vs DMSO, 48 hours (FIG. 7)
Procedure: Epigenetic drugs increasing expression of miR-15 family members levels or miR762 are anticipated to have therapeutic potential. Importantly, these drugs are generally safe, and could influence NRDs even with small changes in miR levels. No regulators of miR-762 have been published, so whether candidate drugs might alter miR-762 levels in vitro were assessed. Cells were exposed to vehicle, trichostatin A (TSA, an HDAC inhibitor and antifungal agent), and valproate (an epilepsy drug, mood stabilizer, and weaker HDAC inhibitor). TSA increased miR-762 levels 65-fold (FIG. 7).

NETO1 mRNA = NETO1 mRNA levels in astrocytes transfected with miR-762 mimic, inhibitor or scrambled miR; type: cell-based; settings: non-diseased astrocytes transfected with 400 nM, vs scrambled miR (FIG. 15)
From the text: De novo introduction of the expanded repeat into naïve wild-type cells to induce NETO1 expression will be evaluated. […] NETO1 is not a predicted target of miR-762 by traditional in silico analysis (which relies on 3′ UTR analysis). However, a (C4G2)3 site 149 base pairs upstream of the NETO1 5′ UTR was identified that appeared significant both for its perfect replication of the C9 antisense expansion and its predicted tight pairing to miR-762 (RegRNA database: http://regrna.mbc.nctu.edu.tw/html/prediction.html). miR binding and regulation of transcripts in the 5′ region is poorly understood, but is known to occur. miR-762 may be able to bind and downregulate NETO1 transcript levels. To assess this, non-diseased astrocytes were transfected with 400 nM miR-762 mimic, miR-762 inhibitor, or scrambled miR. […] If NETO1 regulation is involved in FTLD-MND glutamate excitotoxicity, then targeting miR-762 regulation of the transcript could represent a possible therapeutic angle.

CC(/C=C/C(=O)NO)=C\[C@@H](C)C(=O)c1ccc(N(C)C)cc1 [TSA, trichostatin A] was tested, and the “increase of miR-762 levels” value (miR-762) was 65 fold.
“miR-762: miR-762 mimic transfected at 400 nM; miRNA sequence SEQ ID NO: 5 (Table 1) (CGAGCCGGGGCCGGGGUCGGGG; listed as RNA, chemistry not given here; listed as Homo sapiens)” was tested, and the “NETO1 mRNA level” value (NETO1 mRNA) was “reproducible and significant downregulation”.
